# Laboratory results from patent publication US7555415B2, “Methods for the design of estrogen receptor ligands” (Wyeth, priority 2005, dated 2009).
# B1: human estrogen receptor alpha ligand binding domain (ERalpha-LBD), carboxymethylated (receptor)
# chain: SKKNSLALSLTADQMVSALLDAEPPILYSEYDPTRPFSEASMMGLLTNLADRELVHMINWAKRVPGFVDLTLHDQVHLLECAWLEILMIGLVWRSMEHPVKLLFAPNLLLDRNQGKCVEGMVEIFDMLLATSSRFRMMNLQGEEFVCLKSIILLNSGVYTFLSSTLKSLEEKDHIHRVLDKITDTLIHLMAKAGLTLQQQHQRLAQLLLILSHIRHMSNKGMEHLYSMKCKNVVPLYDLLLEMLDAHRLHAPTS
# modifications: carboxymethylated with 5 mM iodoacetic acid while bound to the estradiol-affinity column; modified residues not stated
# notes: also called human ERalpha-LBD; ERalpha-LBD (301-554)
# Experiments:
# [1] = system: Adjuvant Induced Arthritis (AIA); assay: Adjuvant-induced arthritis: histological scoring of cartilage changes (Mankin score) in tarsal joints; assay type: in vivo, Lewis rats; details: for Cartilage Cells (0-3) / Cartilage Structure (0-6) / Saffranin-O/Fast Green Staining (0-4) / Total Mankin Score (0-14): means ± SD
# Description: (§1) Forty-two male, 8-10 weeks old, Lewis rats were housed according to standard facility operating procedures. They received a standard regimen of food and water ad libitum. Each animal was identified by a cage card indicating the project group and animal number. Each rat number was marked by indelible ink marker on the tail. Freund's Adjuvant-Complete (Sigma Immuno Chemicals, St. Louis, Mo.) was used to induce arthritis. Each mL contained 1 mg Mycobacterium tuberculosis heat killed and dried, 0.85 mL mineral oil and 0.15 mL mannide monooleate (Lot No. 084H8800).
# (§2) The rats were injected intradermally with 0.1 mL of Freund's Adjuvant-Complete at the base of the tail. The animals were randomized to […], each group containing six rats. The groups received vehicle (2% Tween 80, 0.5% methylcellulose), or the Compound 2 compound at 1.0 mg/kg, 0.3 mg/kg, or 0.1 mg/kg orally each day. The rats began treatment on Day 8 after adjuvant injection.
# (§3) At the end of the study the rats were euthanized with CO2, hindlimbs were removed at necropsy and fixed in 10% buffered formalin, and the tarsal joints were decalcified and embedded in paraffin. Histologic sections were stained with Hemotoxylin and Eosin or Saffranin O-Fast Green stain.
# (§4) Slides were coded so that the examiner was blind to the treatment groups. Synovial tissue from tarsal joints were evaluated based on synovial hyperplasia, inflammatory cell infiltration, and pannus formation (see Table 4). Articular cartilage and bone was evaluated using Mankin's histological grading system. Biochemical and metabolic abnormalities in articular cartilage was assessed as from osteoarthritic human hip (see J. Bone Joint Surg (AM) 53A:152-153) (Table 5).
# [2] = system: Adjuvant Induced Arthritis (AIA); assay: Adjuvant Induced Arthritis: daily arthritis severity / paw swelling score; assay type: in vivo, Lewis rats
# [3] = system: Collagen Induced Arthritis; assay: Collagen induced arthritis model (anti-type II collagen mAbs plus LPS): hind paw edema; assay type: in vivo; details: BALB/c mice, 2.5 mg/kg orally once daily, over the course of the experiment
# Description: Compound 2 was evaluated in BALB/c mice, 6-8 weeks of age, in which arthritis was induced by monoclonal antibodies raised against type II collagen, plus lipopolysaccharide (LPS). The animals were administered intravenously with a combination of four different mAbs totaling 4 mg/mouse on day 0, and followed by intravenous administration of […] of LPS 72 hours later (day 3). From day 3, one hour after LPS application, tested compounds were given orally once daily for 15 days. For each animal, an increase in volume of both hind paws was measured using a plethysmometer with water cell (12 mm diameter) on days 0, 5, 7, 10, 14 and 17. Percent inhibition of increase in volume was calculated. Reduction of edema in the hind paws by 30% or more was considered significant.
# [4] = system: Adjuvant Induced Arthritis (AIA); assay: Adjuvant-induced arthritis: histological scoring of synovitis in tarsal joints; assay type: in vivo, Lewis rats; details: for Fibroplasia (0-3) / Inflammatory Cells (0-3) / Pannus (0-2) / Synovial Structure (0-3) / Total Synovitis Score (0-10): means ± SD
# Description: Rats were injected with Complete Freund's Adjuvant (CFA), and synovitis in the tarsal joints was monitored.
# as §1, §2, §3, §4
# [5] = molecular target: the molecule itself; assay: X-ray crystallography, co-crystals with Compound 1 or Compound 2, two LBD molecules per asymmetric unit
# [6] = Compound 2, 0.1 mg/kg orally for 2 weeks from day 8 after CFA
# [7] = Compound 2, 0.3 mg/kg orally for 2 weeks from day 8 after CFA
# [8] = Compound 2, 1 mg/kg orally for 2 weeks from day 8 after CFA
# [9] = all concentrations tested (down to 0.1 mg/kg)
molecule,measurement,setting,value
"C[C@@H]1c2cc(F)ccc2-c2ccccc2N1S(=O)(=O)c1ccc(O)cc1 [Compound 2, 4-[(8-Fluoro-6-methylphenanthridin-5(6H)-yl)sulfonyl]phenol]",Tidemark Integrity (0-1),[1]; [6],0
same,Cartilage Cells (0-3),[1]; [6],1.92 ± 0.21
same,Cartilage Structure (0-6),[1]; [6],2.33 ± 0.68
same,Saffranin-O/Fast Green Staining (0-4),[1]; [6],2.42 ± 0.67
same,Total Mankin Score (0-14),[1]; [6],6.83 ± 1.25
same,Tidemark Integrity (0-1),[1]; [7],0
same,Cartilage Cells (0-3),[1]; [7],1.50 ± 0.32
same,Cartilage Structure (0-6),[1]; [7],1.75 ± 0.42
same,Saffranin-O/Fast Green Staining (0-4),[1]; [7],2.17 ± 0.26
same,Total Mankin Score (0-14),[1]; [7],5.42 ± 0.74*t
same,Tidemark Integrity (0-1),[1]; [8],0
same,Cartilage Cells (0-3),[1]; [8],1.17 ± 0.26*t
same,Cartilage Structure (0-6),[1]; [8],1.25 ± 0.27
same,Saffranin-O/Fast Green Staining (0-4),[1]; [8],2.17 ± 0.26
same,Total Mankin Score (0-14),[1]; [8],4.58 ± 0.74*t
same,Overall cartilage score,[1]; [9],significantly improved
same,Paw swelling score (maximal score per day 12),"[2]; 0.3 mg/kg (first column so headed, c3) orally each day from Day 8, Day 8",11.5
same,Paw swelling score (maximal score per day 12),"[2]; 0.3 mg/kg (first column so headed, c3) orally each day from Day 8, Day 9",9.8
same,Paw swelling score (maximal score per day 12),"[2]; 0.3 mg/kg (first column so headed, c3) orally each day from Day 8, Day 10",7.3
same,Paw swelling score (maximal score per day 12),"[2]; 0.3 mg/kg (first column so headed, c3) orally each day from Day 8, Day 11",7
same,Paw swelling score (maximal score per day 12),"[2]; 0.3 mg/kg (first column so headed, c3) orally each day from Day 8, Day 12",6.7
same,Paw swelling score (maximal score per day 12),"[2]; 0.3 mg/kg (first column so headed, c3) orally each day from Day 8, Day 13",3.7
same,Paw swelling score (maximal score per day 12),"[2]; 0.3 mg/kg (first column so headed, c3) orally each day from Day 8, Day 14",3
same,Paw swelling score (maximal score per day 12),"[2]; 0.3 mg/kg (first column so headed, c3) orally each day from Day 8, Day 15",3.7
same,Paw swelling score (maximal score per day 12),"[2]; 0.3 mg/kg (first column so headed, c3) orally each day from Day 8, Day 16",2.3
same,Paw swelling score (maximal score per day 12),"[2]; 0.3 mg/kg (first column so headed, c3) orally each day from Day 8, Day 17",2.3
same,Paw swelling score (maximal score per day 12),"[2]; 0.3 mg/kg (first column so headed, c3) orally each day from Day 8, Day 18",2.3
same,Paw swelling score (maximal score per day 12),"[2]; 0.3 mg/kg (first column so headed, c3) orally each day from Day 8, Day 19",2
same,Paw swelling score (maximal score per day 12),"[2]; 0.3 mg/kg (first column so headed, c3) orally each day from Day 8, Day 20",2
same,Paw swelling score (maximal score per day 12),"[2]; 0.3 mg/kg (first column so headed, c3) orally each day from Day 8, Day 21",1.7
same,Paw swelling score (maximal score per day 12),"[2]; 0.3 mg/kg (first column so headed, c3) orally each day from Day 8, Day 22",1.7
same,Paw swelling score (maximal score per day 12),"[2]; 0.3 mg/kg (first column so headed, c3) orally each day from Day 8, Day 23",1
same,Paw swelling score (maximal score per day 12),"[2]; 0.3 mg/kg (first column so headed, c3) orally each day from Day 8, Day 24",1.3
same,Paw swelling score (maximal score per day 12),"[2]; 0.3 mg/kg (second column so headed, c4) orally each day from Day 8, Day 8",11.3
same,Paw swelling score (maximal score per day 12),"[2]; 0.3 mg/kg (second column so headed, c4) orally each day from Day 8, Day 9",10.7
same,Paw swelling score (maximal score per day 12),"[2]; 0.3 mg/kg (second column so headed, c4) orally each day from Day 8, Day 10",9.3
same,Paw swelling score (maximal score per day 12),"[2]; 0.3 mg/kg (second column so headed, c4) orally each day from Day 8, Day 11",9.7
same,Paw swelling score (maximal score per day 12),"[2]; 0.3 mg/kg (second column so headed, c4) orally each day from Day 8, Day 12",10
same,Paw swelling score (maximal score per day 12),"[2]; 0.3 mg/kg (second column so headed, c4) orally each day from Day 8, Day 13",4.2
same,Paw swelling score (maximal score per day 12),"[2]; 0.3 mg/kg (second column so headed, c4) orally each day from Day 8, Day 14",3.5
same,Paw swelling score (maximal score per day 12),"[2]; 0.3 mg/kg (second column so headed, c4) orally each day from Day 8, Day 15",3.5
same,Paw swelling score (maximal score per day 12),"[2]; 0.3 mg/kg (second column so headed, c4) orally each day from Day 8, Day 16",3.3
same,Paw swelling score (maximal score per day 12),"[2]; 0.3 mg/kg (second column so headed, c4) orally each day from Day 8, Day 17",3.3
same,Paw swelling score (maximal score per day 12),"[2]; 0.3 mg/kg (second column so headed, c4) orally each day from Day 8, Day 18",3.3
same,Paw swelling score (maximal score per day 12),"[2]; 0.3 mg/kg (second column so headed, c4) orally each day from Day 8, Day 19",3
same,Paw swelling score (maximal score per day 12),"[2]; 0.3 mg/kg (second column so headed, c4) orally each day from Day 8, Day 20",2.8
same,Paw swelling score (maximal score per day 12),"[2]; 0.3 mg/kg (second column so headed, c4) orally each day from Day 8, Day 21",2.5
same,Paw swelling score (maximal score per day 12),"[2]; 0.3 mg/kg (second column so headed, c4) orally each day from Day 8, Day 22",2.5
same,Paw swelling score (maximal score per day 12),"[2]; 0.3 mg/kg (second column so headed, c4) orally each day from Day 8, Day 23",1.2
same,Paw swelling score (maximal score per day 12),"[2]; 0.3 mg/kg (second column so headed, c4) orally each day from Day 8, Day 24",1.3
same,Paw swelling score (maximal score per day 12),"[2]; 1 mg/kg orally each day from Day 8, Day 8",11.3
same,Paw swelling score (maximal score per day 12),"[2]; 1 mg/kg orally each day from Day 8, Day 9",8.8
same,Paw swelling score (maximal score per day 12),"[2]; 1 mg/kg orally each day from Day 8, Day 10",7
same,Paw swelling score (maximal score per day 12),"[2]; 1 mg/kg orally each day from Day 8, Day 11",6
same,Paw swelling score (maximal score per day 12),"[2]; 1 mg/kg orally each day from Day 8, Day 12",5
same,Paw swelling score (maximal score per day 12),"[2]; 1 mg/kg orally each day from Day 8, Day 13",1.7
same,Paw swelling score (maximal score per day 12),"[2]; 1 mg/kg orally each day from Day 8, Day 14",1.3
same,Paw swelling score (maximal score per day 12),"[2]; 1 mg/kg orally each day from Day 8, Day 15",1.3
same,Paw swelling score (maximal score per day 12),"[2]; 1 mg/kg orally each day from Day 8, Day 16",1.2
same,Paw swelling score (maximal score per day 12),"[2]; 1 mg/kg orally each day from Day 8, Day 17",1.2
same,Paw swelling score (maximal score per day 12),"[2]; 1 mg/kg orally each day from Day 8, Day 18",1.2
same,Paw swelling score (maximal score per day 12),"[2]; 1 mg/kg orally each day from Day 8, Day 19",1.2
same,Paw swelling score (maximal score per day 12),"[2]; 1 mg/kg orally each day from Day 8, Day 20",1.2
same,Paw swelling score (maximal score per day 12),"[2]; 1 mg/kg orally each day from Day 8, Day 21",1.2
same,Paw swelling score (maximal score per day 12),"[2]; 1 mg/kg orally each day from Day 8, Day 22",1.2
same,Paw swelling score (maximal score per day 12),"[2]; 1 mg/kg orally each day from Day 8, Day 23",1
same,Paw swelling score (maximal score per day 12),"[2]; 1 mg/kg orally each day from Day 8, Day 24",0.8
same,Paw swelling and redness (joint scores),"[2]; following treatment, there appeared to be a dose response",Decreases
same,Inhibition of paw edema,[3],> 30%
same,Fibroplasia (0-3),[4]; [6],1.75 ± 0.42
same,Inflammatory Cells (0-3),[4]; [6],1.83 ± 0.52
same,Pannus (0-2),[4]; [6],1.50 ± 0.84
same,Synovial Structure (0-3),[4]; [6],2.33 ± 0.75
same,Total Synovitis Score (0-10),[4]; [6],7.42 ± 2.25
same,Fibroplasia (0-3),[4]; [7],1.67 ± 0.26*t
same,Inflammatory Cells (0-3),[4]; [7],1.25 ± 0.27
same,Pannus (0-2),[4]; [7],0.50 ± 0.84
same,Synovial Structure (0-3),[4]; [7],1.58 ± 0.38
same,Total Synovitis Score (0-10),[4]; [7],5.00 ± 1.30*#t
same,Fibroplasia (0-3),[4]; [8],1.33 ± 0.41*t
same,Inflammatory Cells (0-3),[4]; [8],1.17 ± 0.26
same,Pannus (0-2),[4]; [8],0.25 ± 0.42
same,Synovial Structure (0-3),[4]; [8],1.42 ± 0.38
same,Total Synovitis Score (0-10),[4]; [8],4.17 ± 1.21*#t
same,Overall synovitis score,[4]; [9],significantly improved
B1,binding result,[5],binds
